Paper PMC12467033, “Exploring the Inhibitory Potential of Six Porphyrin Compounds Against α-Amylase and α-Glucosidase Linked to Diabetes” (Biomolecules, 2025)
Where “and” joins values, the source holds several entries; their conditions need not be identical. Equal values may be shown once. Read-outs that look alike come from different tables or passages of the source.

Legend:
[1] = molecular target: T1, α-glucosidase (Saccharomyces cerevisiae, UniProt P53341); assay: α-Glucosidase inhibitory activity assay (pNPG substrate); type: biochemical; conditions: 37 °C
T1 sequence (P53341 whole entry): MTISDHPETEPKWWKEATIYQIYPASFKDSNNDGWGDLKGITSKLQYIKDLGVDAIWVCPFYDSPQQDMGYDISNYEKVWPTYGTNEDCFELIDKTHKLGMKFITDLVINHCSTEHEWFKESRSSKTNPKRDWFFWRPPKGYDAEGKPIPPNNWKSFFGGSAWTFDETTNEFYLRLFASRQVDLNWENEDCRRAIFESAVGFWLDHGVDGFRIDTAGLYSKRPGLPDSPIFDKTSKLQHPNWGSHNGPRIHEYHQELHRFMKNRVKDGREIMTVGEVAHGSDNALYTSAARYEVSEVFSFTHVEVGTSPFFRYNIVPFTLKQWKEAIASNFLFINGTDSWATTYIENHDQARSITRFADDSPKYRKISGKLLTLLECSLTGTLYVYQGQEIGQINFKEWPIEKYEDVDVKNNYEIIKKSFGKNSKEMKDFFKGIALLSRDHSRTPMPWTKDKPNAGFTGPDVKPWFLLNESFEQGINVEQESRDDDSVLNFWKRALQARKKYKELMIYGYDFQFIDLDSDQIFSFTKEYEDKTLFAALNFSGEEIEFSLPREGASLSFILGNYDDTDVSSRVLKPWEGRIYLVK
Procedure: The experimental groups were supplemented with different concentrations of porphyrin compounds, followed by the addition of 100 μL of 5 mmol/L pNPG. After thorough mixing, the samples were pre-incubated at 37 °C for 10 min. Subsequently, the reaction was terminated by adding 0.1 mol/L of sodium carbonate (Na2CO3) solution. Following a 3 min reaction period, the absorbance of the solutions at 405 nm was measured using a microplate reader. The inhibition rate (%) was subsequently calculated using Formula (1).
(§1) Using the enzyme inhibition rate as the y-axis and the inhibitor concentration as the x-axis, the IC50 value was calculated through linear regression fitting with GraphPad Prism software (5.0).

[2] = molecular target: T2, α-amylase (Sus scrofa, UniProt P00690); assay: Mode of α-AMY inhibition (reversibility, Lineweaver–Burk kinetics); type: biochemical; conditions: for type of inhibition of α-amylase: Lineweaver–Burk plots; for reversibility of inhibition of α-amylase: enzyme 100–400 U/L, substrate 5 mmol/L; for Ki: free enzyme inhibition constant; for Kis: enzyme–substrate complex inhibition constant
T2 sequence (P00690 16-511): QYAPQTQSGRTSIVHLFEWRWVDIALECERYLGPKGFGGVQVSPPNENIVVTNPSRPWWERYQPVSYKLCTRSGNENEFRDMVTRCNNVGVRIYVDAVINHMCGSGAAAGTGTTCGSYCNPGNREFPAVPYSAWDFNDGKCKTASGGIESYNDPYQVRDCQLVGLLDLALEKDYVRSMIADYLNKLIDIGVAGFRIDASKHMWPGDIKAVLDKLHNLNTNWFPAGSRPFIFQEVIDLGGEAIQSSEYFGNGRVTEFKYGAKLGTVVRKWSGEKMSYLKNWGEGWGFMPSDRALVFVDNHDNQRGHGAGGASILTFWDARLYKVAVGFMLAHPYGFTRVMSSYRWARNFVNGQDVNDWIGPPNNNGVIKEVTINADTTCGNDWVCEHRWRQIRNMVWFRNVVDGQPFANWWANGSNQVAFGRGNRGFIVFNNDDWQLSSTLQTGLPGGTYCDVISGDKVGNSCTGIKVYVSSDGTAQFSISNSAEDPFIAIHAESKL
Source text: In the experiment, the concentration of the fixed substrate Gal-G2-α-CNP/pNPG solution was 5 mmol/L, and the concentrations of the two enzymes (100, 200, 300, 400 U/L) were used to determine the effect of different concentrations of porphyrins on enzyme activity. The concentration of the enzyme was 200 U/L, and the concentration of the substrate Gal-G2-α-CNP/pNPG solution (2.5, 5, 7.5, 10 mmol/L) was used to determine the effect of different concentrations of porphyrins on the enzyme-catalyzed substrate activity.
Upon identifying the type of inhibition, the kinetic equations vary for different inhibition types.
In the formula, v, Vmax, Km, Ki, and Kis represent the reaction rate, maximum reaction rate, Michaelis constant, and free enzyme inhibition constant, respectively, and the binding enzyme inhibition constant. [S] denotes the substrate concentration. [I] denotes the inhibitor concentration.

[3] = molecular target: T1, α-glucosidase; assay: FTIR secondary structure analysis of α-GLU complexes; conditions: enzyme–porphyrin molar ratio 1:2, amide I band
Source text: A molar ratio of 1:2 (α-amylase/α-glucosidase)–porphyrin solution was placed in a cryocentrifugal concentrator and the dried solid sample was mixed with dry KBr and measured using a Nicolet IS-50 FTIR Spectrometer (ThermoFisher, Waltham, MA, USA) with a scanning range of 4000–400 cm^−1 and a resolution of 4 cm^−1. The overlapping peaks in the amide I band (1700–1600 cm^−1) were further analyzed into multiple feature sub-peaks, and quantitative analysis of the relative content of various secondary structures in proteins using curve fitting methods was performed.

[4] = molecular target: T2, α-amylase; assay: α-Amylase inhibitory activity assay (Gal-G2-α-CNP substrate); type: biochemical; conditions: 37 °C, pH 6.8
Procedure: The inhibitory activity detection process was slightly modified, with reference as the base method from the literature. […] After thorough mixing, the samples were pre-incubated at 37 °C for 10 min. Subsequently, 100 μL of 5 mmol/L Gal-G2-α-CNP substrate was added to each sample. Following a 3 min reaction period, the absorbance of the solutions at 405 nm was measured using a microplate reader. The inhibition rate (%) was calculated based on the absorbance readings according to Formula (1).(1) inhibition rate%=(1−(A1−A2)/(A3−A4))×100
In the formula, A1 represents the sample group; A2 represents the sample control group (where the enzyme was replaced with phosphate buffer); A3 represents the blank control group; and A4 represents the reagent blank control group (containing blank sample solution and phosphate buffer).
as §1

[5] = test system: HepG2 cells; assay: MTT cytotoxicity assay; type: cell-based, human; conditions: HepG2, 50–200 μg/mL, 24 h
Procedure: (§2) The cytotoxicity of six porphyrin compounds against human hepatocellular carcinoma HepG2 cells was evaluated using the MTT assay. HepG2 cells were seeded into 96-well plates at a density of 5000 cells per well and cultured for 24 h at 37 °C in a 5% CO2 incubator. Then, 100 µL of sample solutions at various concentrations (50, 100, and 200 µg/mL) was added to the experimental wells, with blank control wells and solvent control wells also included. The cells were further incubated for 24 h. After incubation, 10 µL of MTT solution (5 mg/mL) was added to each well, and the plates were incubated for another 4 h. Subsequently, 100 µL of Formazan solubilization solution was added to each well, followed by gentle mixing. The plates were returned to the incubator and maintained until complete dissolution of Formazan crystals was observed under a microscope. The absorbance at 570 nm was measured using a microplate reader (Meigu Molecular Instrument Company, Shanghai, China), and the survival rate of HepG2 cells was calculated.(12) Cell viability=As-Ab/Ac-Ab×100%
(§3) In the formula, As represents the absorbance of the sample well, Ac denotes the absorbance of the blank control well (without the drug), and Ab refers to the absorbance of the solvent control well (devoid of both cells and the drug).

[6] = molecular target: T2, α-amylase; assay: In vitro stability study (temperature, pH), inhibition rate against α-amylase; type: physicochemical; conditions: water bath 30–100 °C, 20 min
Procedure: (§4) Samples of a certain mass concentration were subjected to a water bath at different temperatures (30, 40, 50, 60, 70, 80, 90, 100 °C) for 20 min and treated under different pH conditions (2.0, 3.0, 4.0, 5.0, 6.0, 7.0, 8.0, 9.0, and 10.0) for 20 min to determine the effect of temperature and pH on the stability of the two enzymes.

[7] = molecular target: T1, α-glucosidase; assay: In vitro stability study (temperature, pH), inhibition rate against α-glucosidase; type: physicochemical; conditions: water bath 30–100 °C, 20 min
Procedure: as §4

[8] = MTT cytotoxicity assay; type: cell-based, human; conditions: human, HepG2 cells; for viability at 24 h: read-out: cell viability
Procedure: as §2, §3

Molecule | IC50 α-GLU [1] | Vmax ([2]; C 40 μg/mL) | Km ([2]; C 200 μg/mL) | Vmax ([2]; C 200 μg/mL) | type of inhibition of α-amylase [2] | reversibility of inhibition of α-amylase [2] | Ki [2] | Random Coil [3] | α-Helix [3] | β-Antiparallel [3] | β-Sheet [3] | β-Turn [3] | IC50 α-amylase [4] | thermal stability: inhibition rate against α-amylase [6] | thermal stability: inhibition rate against α-glucosidase [7] | Vmax ([2]; C 50 μg/mL) | Kis [2] | Vmax ([2]; C 25 μg/mL) | Vmax ([2]; C 100 μg/mL) | Vmax ([2]; C 150 μg/mL) | other results
O=C(O)c1ccc(-c2c3nc(c(-c4ccc(C(=O)O)cc4)c4ccc([nH]4)c(-c4ccc(C(=O)O)cc4)c4nc(c(-c5ccc(C(=O)O)cc5)c5ccc2[nH]5)C=C4)C=C3)cc1.[Ni+2] [Ni–TCPP, nickel (II) meso-tetra (4-carboxyphenyl) porphine] | 6.58 ± 0.21 µg/mL | 0.1456 ± 0.0043 ΔOD/min | 3.5987 ± 0.0938 µg/mL | 0.0799 ± 0.0021 ΔOD/min | non-competitive inhibition | reversible inhibition | 157.9542 ± 0.1375 µg/mL | 26.76 ± 0.07% | 19.75 ± 0.07% | 1.88 ± 0.01% | 13.68 ± 0.04% | 37.94 ± 0.10% | 156.26 ± 0.48 µg/mL | small fluctuations | remained relatively stable |  |  |  |  |  | Km ([2]; C 40 μg/mL): 3.6229 ± 0.1082 µg/mL; Km ([2]; C 80 μg/mL): 3.6134 ± 0.1167 µg/mL; Vmax ([2]; C 80 μg/mL): 0.1238 ± 0.0040 ΔOD/min; Km ([2]; C 120 μg/mL): 3.6072 ± 0.0593 µg/mL; Vmax ([2]; C 120 μg/mL): 0.1032 ± 0.0017 ΔOD/min; Km ([2]; C 160 μg/mL): 3.6027 ± 0.1141 µg/mL; Vmax ([2]; C 160 μg/mL): 0.0901 ± 0.0029 ΔOD/min; cell viability [5]: above 88%
Oc1ccc(-c2c3nc(c(-c4ccc(O)cc4)c4ccc([nH]4)c(-c4ccc(O)cc4)c4nc(c(-c5ccc(O)cc5)c5ccc2[nH]5)C=C4)C=C3)cc1 [THPP] |  | 0.0491 ± 0.0012 ΔOD/min |  |  | mixed type | reversible inhibition |  | 23.74 ± 0.06% | 21.19 ± 0.05% | 7.07 ± 0.01% | 12.79 ± 0.03% | 35.20 ± 0.11% |  | small fluctuations | remained relatively stable | 0.0426 ± 0.0013 ΔOD/min | 23.1012 ± 0.1027 µg/mL |  |  |  | Vmax ([2]; C 20 μg/mL): 0.0740 ± 0.0028 ΔOD/min; Vmax ([2]; C 30 μg/mL): 0.0580 ± 0.0010 ΔOD/min; Vmax ([2]; C 60 μg/mL): 0.0376 ± 0.0012 ΔOD/min; cytotoxicity (in words) [5]: certain cytotoxic effects
iron (III) meso-tetra (4-carboxyphenyl) porphyrin chloride [Fe–TCPP] | 23.93 ± 0.53 µg/mL |  | 3.4920 ± 0.0491 µg/mL | 0.0512 ± 0.0007 ΔOD/min | mixed type | reversible inhibition | 69.5865 ± 0.1284 µg/mL | 16.75% and 16.75 ± 0.03% | 22.48 ± 0.05% | 8.02% and 8.02 ± 0.02% |  |  | 95.75 ± 0.62 µg/mL | small fluctuations | remained relatively stable | 0.0972 ± 0.0015 ΔOD/min | 117.2152 ± 0.1432 µg/mL | 0.1143 ± 0.0037 ΔOD/min | 0.0748 ± 0.0024 ΔOD/min | 0.0601 ± 0.0009 ΔOD/min | Km ([2]; C 25 μg/mL): 2.7329 ± 0.0882 µg/mL; Km ([2]; C 50 μg/mL): 2.9384 ± 0.0447 µg/mL; Km ([2]; C 100 μg/mL): 3.2079 ± 0.1016 µg/mL; Km ([2]; C 150 μg/mL): 3.3360 ± 0.0508 µg/mL
O=C(O)c1ccc(-c2c3nc(c(-c4ccc(C(=O)O)cc4)c4ccc([nH]4)c(-c4ccc(C(=O)O)cc4)c4nc(c(-c5ccc(C(=O)O)cc5)c5ccc2[nH]5)C=C4)C=C3)cc1 [TCPP] |  |  |  | 0.0496 ± 0.0007 ΔOD/min | mixed type | reversible inhibition |  | 22.15 ± 0.04% | 22.71 ± 0.05% | 9.57 ± 0.02% | 12.03 ± 0.02% | 33.54 ± 0.07% |  | small fluctuations | remained relatively stable | 0.0872 ± 0.0014 ΔOD/min | 132.4382 ± 0.1403 µg/mL | 0.1046 ± 0.0025 ΔOD/min | 0.0709 ± 0.0018 ΔOD/min | 0.0583 ± 0.0021 ΔOD/min | viability at 24 h, 200 µg/mL ([8]; HepG2, 200 μg/mL, read-out: cell viability (survival rate)): 30.3 ± 3.45%; viability at 24 h ([8]; HepG2, 50–100 μg/mL): > 80%
Nc1ccc(-c2c3nc(c(-c4ccc(N)cc4)c4ccc([nH]4)c(-c4ccc(N)cc4)c4nc(c(-c5ccc(N)cc5)c5ccc2[nH]5)C=C4)C=C3)cc1 [TAPP] |  |  |  |  | mixed type | reversible inhibition |  | 23.93 ± 0.05% | 22.82 ± 0.08% | 1.96 ± 0.01% | 12.99 ± 0.13% | 38.30 ± 0.08% |  |  |  |  | 21.2847 ± 0.0677 µg/mL |  |  |  | Vmax ([2]; C 2 μg/mL): 0.1670 ± 0.0030 ΔOD/min; Vmax ([2]; C 4 μg/mL): 0.1562 ± 0.0039 ΔOD/min; Vmax ([2]; C 6 μg/mL): 0.1425 ± 0.0032 ΔOD/min; Vmax ([2]; C 8 μg/mL): 0.1328 ± 0.0034 ΔOD/min; Vmax ([2]; C 10 μg/mL): 0.1243 ± 0.0028 ΔOD/min; viability at 24 h ([8]; HepG2, 50–200 μg/mL): > 97%
